Data published in ChEMBL document CHEMBL5724806, “Unraveling interindividual differences and functional consequences of gut microbial metabolism of immunosuppressants” (2024).

What was measured:
Assay type in all cases: ADME
[1] = (§1) The drug is tested on the gut metagenome community of A-04 with ENA study accession number: PRJEB31790 for biotransformation under anaerobic condition. The drug concentrations were measured over 7 timepoints collected between 0 and 12 hours of incubation by liquid-chromatography-coupled mass spectrometry (LC–MS); parameters: dose 5 uM, timepoint 0, 0.75, 1.5, 3, 6, 9, 12 hours; details: 5 µM
[2] = The drug is tested on Alloscardovia omnicolens strain: DSM21503 for biotransformation under anaerobic condition. The drug concentrations were measured over 6 timepoints collected between 0 and 12 hours of incubation by liquid-chromatography-coupled mass spectrometry (LC–MS); parameters: dose 5 uM, timepoint 0, 1.5, 3, 6, 9, 12 hours; details: 5 µM
[3] = The drug is tested on Bacteroides uniformis strain: DSM6597 for biotransformation under anaerobic condition. The drug concentrations were measured over 6 timepoints collected between 0 and 12 hours of incubation by liquid-chromatography-coupled mass spectrometry (LC–MS); parameters: dose 5 uM, timepoint 0, 1.5, 3, 6, 9, 12 hours; details: 5 µM
[4] = as §1, with “P-01” for “A-04”; parameters: dose 5 uM, timepoint 0, 0.75, 1.5, 3, 6, 9, 12 hours; details: 5 µM
[5] = as §1, with “A-10” for “A-04”, “microaerobic” for “anaerobic”; parameters: dose 5 uM, timepoint 0, 0.75, 1.5, 3, 6, 9, 12 hours; details: 5 µM
[6] = The drug is tested on Lactobacillus ruminis strain: ATCC25644 for biotransformation under anaerobic condition. The drug concentrations were measured over 6 timepoints collected between 0 and 12 hours of incubation by liquid-chromatography-coupled mass spectrometry (LC–MS); parameters: dose 5 uM, timepoint 0, 1.5, 3, 6, 9, 12 hours; details: ligilactobacillus ruminis, 5 µM
[7] = as §1, with “P-02” for “A-04”, “microaerobic” for “anaerobic”; parameters: dose 5 uM, timepoint 0, 0.75, 1.5, 3, 6, 9, 12 hours; details: 5 µM
[8] = The drug is tested on Streptococcus mitis strain: DSM12643 for biotransformation under microaerobic condition. The drug concentrations were measured over 6 timepoints collected between 0 and 12 hours of incubation by liquid-chromatography-coupled mass spectrometry (LC–MS); parameters: dose 5 uM, timepoint 0, 1.5, 3, 6, 9, 12 hours; details: 5 µM
[9] = The drug is tested on Roseburia intestinalis strain: DSM14610 for biotransformation under anaerobic condition. The drug concentrations were measured over 6 timepoints collected between 0 and 12 hours of incubation by liquid-chromatography-coupled mass spectrometry (LC–MS); parameters: dose 5 uM, timepoint 0, 1.5, 3, 6, 9, 12 hours; details: 5 µM
[10] = The drug is tested on Dorea formicigenerans strain: DSM3992 for biotransformation under anaerobic condition. The drug concentrations were measured over 6 timepoints collected between 0 and 12 hours of incubation by liquid-chromatography-coupled mass spectrometry (LC–MS); parameters: dose 5 uM, timepoint 0, 1.5, 3, 6, 9, 12 hours; details: 5 µM
[11] = The drug is tested on Bacteroides fragilis strain: DSM2151 for biotransformation under anaerobic condition. The drug concentrations were measured over 6 timepoints collected between 0 and 12 hours of incubation by liquid-chromatography-coupled mass spectrometry (LC–MS); parameters: dose 5 uM, timepoint 0, 1.5, 3, 6, 9, 12 hours; details: 5 µM
[12] = The drug is tested on Actinomyces graevenitzii strain: DSM15540 for biotransformation under microaerobic condition. The drug concentrations were measured over 6 timepoints collected between 0 and 12 hours of incubation by liquid-chromatography-coupled mass spectrometry (LC–MS); parameters: dose 5 uM, timepoint 0, 1.5, 3, 6, 9, 12 hours; details: 5 µM
[13] = as §1, with “microaerobic” for “anaerobic”; parameters: dose 5 uM, timepoint 0, 0.75, 1.5, 3, 6, 9, 12 hours; details: 5 µM
[14] = The drug is tested on Prevotella copri strain: DSM18205 for biotransformation under anaerobic condition. The drug concentrations were measured over 6 timepoints collected between 0 and 12 hours of incubation by liquid-chromatography-coupled mass spectrometry (LC–MS); parameters: dose 5 uM, timepoint 0, 1.5, 3, 6, 9, 12 hours; details: segatella copri, 5 µM
[15] = as §1, with “A-05” for “A-04”; parameters: dose 5 uM, timepoint 0, 0.75, 1.5, 3, 6, 9, 12 hours; details: 5 µM
[16] = The drug is tested on Streptococcus salivarius strain: DSM20560 for biotransformation under anaerobic condition. The drug concentrations were measured over 6 timepoints collected between 0 and 12 hours of incubation by liquid-chromatography-coupled mass spectrometry (LC–MS); parameters: dose 5 uM, timepoint 0, 1.5, 3, 6, 9, 12 hours; details: 5 µM
[17] = The drug is tested on Lactobacillus ruminis strain: ATCC25644 for biotransformation under microaerobic condition. The drug concentrations were measured over 6 timepoints collected between 0 and 12 hours of incubation by liquid-chromatography-coupled mass spectrometry (LC–MS); parameters: dose 5 uM, timepoint 0, 1.5, 3, 6, 9, 12 hours; details: ligilactobacillus ruminis, 5 µM
[18] = as §1, with “T-05” for “A-04”, “microaerobic” for “anaerobic”; parameters: dose 5 uM, timepoint 0, 0.75, 1.5, 3, 6, 9, 12 hours; details: 5 µM
[19] = The drug is tested on Clostridium scindens strain: DSM5676 for biotransformation under anaerobic condition. The drug concentrations were measured over 6 timepoints collected between 0 and 12 hours of incubation by liquid-chromatography-coupled mass spectrometry (LC–MS); parameters: dose 5 uM, timepoint 0, 1.5, 3, 6, 9, 12 hours; details: 5 µM
[20] = The drug is tested on Bacteroides thetaiotaomicron strain: DSM2079 for biotransformation under anaerobic condition. The drug concentrations were measured over 6 timepoints collected between 0 and 12 hours of incubation by liquid-chromatography-coupled mass spectrometry (LC–MS); parameters: dose 5 uM, timepoint 0, 1.5, 3, 6, 9, 12 hours; details: 5 µM
[21] = The drug is tested on Alloscardovia omnicolens strain: DSM21503 for biotransformation under microaerobic condition. The drug concentrations were measured over 6 timepoints collected between 0 and 12 hours of incubation by liquid-chromatography-coupled mass spectrometry (LC–MS); parameters: dose 5 uM, timepoint 0, 1.5, 3, 6, 9, 12 hours; details: 5 µM
[22] = The drug is tested on Capnocytophaga ochracea strain: DSM7271 for biotransformation under microaerobic condition. The drug concentrations were measured over 6 timepoints collected between 0 and 12 hours of incubation by liquid-chromatography-coupled mass spectrometry (LC–MS); parameters: dose 5 uM, timepoint 0, 1.5, 3, 6, 9, 12 hours; details: 5 µM
[23] = as §1, with “P-02” for “A-04”; parameters: dose 5 uM, timepoint 0, 0.75, 1.5, 3, 6, 9, 12 hours; details: 5 µM
[24] = as §1, with “A-09” for “A-04”, “microaerobic” for “anaerobic”; parameters: dose 5 uM, timepoint 0, 0.75, 1.5, 3, 6, 9, 12 hours; details: 5 µM
[25] = The drug is tested on Enterococcus faecalis strain: ATCC29212 for biotransformation under microaerobic condition. The drug concentrations were measured over 6 timepoints collected between 0 and 12 hours of incubation by liquid-chromatography-coupled mass spectrometry (LC–MS); parameters: dose 5 uM, timepoint 0, 1.5, 3, 6, 9, 12 hours; details: 5 µM
[26] = as §1, with “A-01” for “A-04”; parameters: dose 5 uM, timepoint 0, 0.75, 1.5, 3, 6, 9, 12 hours; details: 5 µM
[27] = as §1, with “A-07” for “A-04”, “microaerobic” for “anaerobic”; parameters: dose 5 uM, timepoint 0, 0.75, 1.5, 3, 6, 9, 12 hours; details: 5 µM
[28] = The drug is tested on Enterococcus faecalis strain: ATCC29212 for biotransformation under anaerobic condition. The drug concentrations were measured over 6 timepoints collected between 0 and 12 hours of incubation by liquid-chromatography-coupled mass spectrometry (LC–MS); parameters: dose 5 uM, timepoint 0, 1.5, 3, 6, 9, 12 hours; details: 5 µM
[29] = as §1, with “T-05” for “A-04”; parameters: dose 5 uM, timepoint 0, 0.75, 1.5, 3, 6, 9, 12 hours; details: 5 µM
[30] = The drug is tested on Faecalibacterium prausnitzii strain: DSM17677 for biotransformation under anaerobic condition. The drug concentrations were measured over 6 timepoints collected between 0 and 12 hours of incubation by liquid-chromatography-coupled mass spectrometry (LC–MS); parameters: dose 5 uM, timepoint 0, 1.5, 3, 6, 9, 12 hours; details: faecalibacterium duncaniae, 5 µM

| Bacterial Biotransformation [1] | Bacterial Biotransformation [2] | Bacterial Biotransformation [3] | Bacterial Biotransformation [4] | Bacterial Biotransformation [5] | Bacterial Biotransformation [6] | Bacterial Biotransformation [7] | Bacterial Biotransformation [8] | Bacterial Biotransformation [9] | Bacterial Biotransformation [10] | Bacterial Biotransformation [11] | Bacterial Biotransformation [12] | Bacterial Biotransformation [13] | Bacterial Biotransformation [14] | Bacterial Biotransformation [15] | Bacterial Biotransformation [16] | Bacterial Biotransformation [17] | Bacterial Biotransformation [18] | Bacterial Biotransformation [19] | Bacterial Biotransformation [20] | Structure (SMILES) | further results |
| --- | --- | --- | --- | --- | --- | --- | --- | --- | --- | --- | --- | --- | --- | --- | --- | --- | --- | --- | --- | --- | --- |
| Compound NOT metabolized | Compound NOT metabolized | Compound NOT metabolized | Compound NOT metabolized | Compound NOT metabolized | Compound NOT metabolized | Compound NOT metabolized | Compound NOT metabolized | Compound NOT metabolized | Compound NOT metabolized | Compound NOT metabolized | Compound NOT metabolized | Compound NOT metabolized | Compound NOT metabolized | Compound NOT metabolized | Compound NOT metabolized | Compound NOT metabolized | Compound NOT metabolized | Compound NOT metabolized | Compound NOT metabolized | C[C@@H](NCCCc1cccc(C(F)(F)F)c1)c1cccc2ccccc12 | Bacterial Biotransformation [21]: Compound NOT metabolized; Bacterial Biotransformation [22]: Compound NOT metabolized; Bacterial Biotransformation [23]: Compound NOT metabolized; Bacterial Biotransformation [24]: Compound NOT metabolized; Bacterial Biotransformation [25]: Compound NOT metabolized; Bacterial Biotransformation [26]: Compound NOT metabolized; Bacterial Biotransformation [27]: Compound NOT metabolized; Bacterial Biotransformation [28]: Compound NOT metabolized; Bacterial Biotransformation [29]: Compound NOT metabolized; Bacterial Biotransformation [30]: Compound NOT metabolized |
| Compound NOT metabolized | Compound NOT metabolized | Compound NOT metabolized | Compound metabolized | Compound metabolized | Compound NOT metabolized | Compound NOT metabolized | Compound NOT metabolized | Compound NOT metabolized | Compound NOT metabolized | Compound NOT metabolized | Compound NOT metabolized | Compound metabolized | Compound NOT metabolized | Compound NOT metabolized | Compound NOT metabolized | Compound NOT metabolized | Compound NOT metabolized | Compound NOT metabolized | Compound NOT metabolized | CCCC1O[C@@H]2C[C@H]3[C@@H]4CCC5=CC(=O)C=C[C@]5(C)[C@H]4[C@@H](O)C[C@]3(C)[C@]2(C(=O)CO)O1 (stereo not given in full) [BUDESONIDE] | Bacterial Biotransformation [21]: Compound NOT metabolized; Bacterial Biotransformation [22]: Compound NOT metabolized; Bacterial Biotransformation [23]: Compound metabolized; Bacterial Biotransformation [24]: Compound metabolized; Bacterial Biotransformation [25]: Compound NOT metabolized; Bacterial Biotransformation [26]: Compound NOT metabolized; Bacterial Biotransformation [27]: Compound metabolized; Bacterial Biotransformation [28]: Compound NOT metabolized; Bacterial Biotransformation [29]: Compound NOT metabolized; Bacterial Biotransformation [30]: Compound NOT metabolized |
| Compound metabolized | Compound NOT metabolized | Compound metabolized | Compound NOT metabolized | Compound metabolized | Compound NOT metabolized | Compound NOT metabolized | Compound NOT metabolized | Compound metabolized | Compound metabolized | Compound NOT metabolized | Compound NOT metabolized | Compound metabolized | Compound NOT metabolized | Compound NOT metabolized | Compound NOT metabolized | Compound NOT metabolized | Compound metabolized | Compound metabolized | Compound NOT metabolized | C=CC[C@@H]1/C=C(\C)C[C@H](C)C[C@H](OC)[C@H]2O[C@@](O)(C(=O)C(=O)N3CCCC[C@H]3C(=O)O[C@H](/C(C)=C/[C@@H]3CC[C@@H](O)[C@H](OC)C3)[C@H](C)[C@@H](O)CC1=O)[C@H](C)C[C@@H]2OC.O [TACROLIMUS] | Bacterial Biotransformation [21]: Compound NOT metabolized; Bacterial Biotransformation [22]: Compound NOT metabolized; Bacterial Biotransformation [23]: Compound NOT metabolized; Bacterial Biotransformation [24]: Compound metabolized; Bacterial Biotransformation [25]: Compound NOT metabolized; Bacterial Biotransformation [26]: Compound NOT metabolized; Bacterial Biotransformation [27]: Compound metabolized; Bacterial Biotransformation [28]: Compound metabolized; Bacterial Biotransformation [29]: Compound NOT metabolized; Bacterial Biotransformation [30]: Compound NOT metabolized |
